This is an account of results in PubChem BioAssay (NCI).

SMILES strings stand for the structures.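 Interpolation was linear, between the two tested concentrations surrounding the appropriate level; five concentrations were tested over 48 hours in 96-well plates. GI50 = concentration required for 50% inhibition of growth. TGI: total growth inhibition.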 A value given as a limit tells only on which side of the number the result lay.

What all share (assay): NCI-60 cell line screen, 48 h
Experiment [1] has as its system A498 renal.
For experiment [2], the system named is HS 578T breast.
The test system of experiment [3] is HT29 colon.
In experiment [4] the test system is NCI-H226 lung.
The subject of experiment [5] is SF-268 CNS.
The subject of experiment [6] is SF-295 CNS.
In experiment [7] the test system is SF-539 CNS.
Experiment [8] concerns SNB-75 CNS.

For the molecule `C(=C\c1nccc2c1[nH]c1ccccc12)/c1ccccc1`, the GI50 was 4.36 µM in experiment [1]; 2350 nM in experiment [2]; 3.07 µM in experiment [3]; 4.09 µM in experiment [4]; 5.23 µM in experiment [5]; 0.714 µM in experiment [6]. Besides, the GI50 was 1.98 µM in experiment [7] and 2.76 µM in experiment [8]. The TGI was 15.9 µM in experiment [1]; 9.34 µM in experiment [2]; 11.9 µM in experiment [3]; > 100 µM in experiment [4]; > 100 µM in experiment [5]; 3.21 µM in experiment [6]. Also, the TGI in experiment [7] turned out to be 4.51 µM; in experiment [8] it was 21.9 µM.

With `CC(C)(C)OC(=O)CN1CCc2c(sc3ncnc(N/N=C/c4cccc5ccccc45)c23)C1`, the GI50 in experiment [1] is 3.78 µM; in experiment [2], 1420 nM; in experiment [3], 3.47 µM; in experiment [4] it was 4.28 µM; in experiment [5], 3.59 µM; in experiment [6], 4.41 µM. Also, the GI50 was 1.73 µM in experiment [7] and 1.04 µM in experiment [8]. Further, the TGI came to 11.9 µM in experiment [1]; 16 µM in experiment [2]; 12.3 µM in experiment [3]; 12.8 µM in experiment [4]; 24.3 µM in experiment [5]; 10.2 µM in experiment [6]. Further, the figures for the TGI in experiment [7] and in experiment [8] were 7.02 µM and 14.4 µM, respectively.

`O=c1c2ccccc2nc(-c2ccccc2)n1O`: the TGI in experiment [1], in experiment [2], in experiment [3], in experiment [4], in experiment [5] and in experiment [6] was > 100 µM in each case. For the same molecule, the TGI in experiment [7] and in experiment [8] was > 100 µM throughout.

`COc1ccc(/C=C/C(=O)c2cc3c(N)c(C(=O)Nc4ccccc4C)sc3nc2C)cc1`: the GI50 in experiment [1] is 0.197 µM; in experiment [2], 188 nM; in experiment [3], 0.487 µM; in experiment [4], 0.619 µM; in experiment [5], 1.24 µM; in experiment [6], 0.497 µM. Besides, the GI50 in experiment [7] is 0.487 µM; in experiment [8], 0.17 µM. Also, the TGI is 2.64 µM in experiment [1]; > 50 µM in experiment [2]; > 50 µM in experiment [3]; 12.2 µM in experiment [4]; > 50 µM in experiment [5]; > 50 µM in experiment [6]. For the same molecule, the figures for the TGI in experiment [7] and in experiment [8] were 1.68 µM and 1.85 µM, respectively.

On to `O=S(=O)(O)/C(=C\c1ccccc1)c1ccccc1` (tested in a mixture with another compound), for which the TGI in experiment [1], in experiment [2], in experiment [3], in experiment [4], in experiment [5] and in experiment [6] was > 100 µM throughout. For the same molecule, the TGI in experiment [7] and in experiment [8] was > 100 µM in each case.

Turning to `COc1cc2cc(Oc3ccc(NC(=O)Nc4ccc(Cl)c(C(F)(F)F)c4)cc3)c(C)nc2cc1OC`, the GI50 was 0.754 µM in experiment [1]; 720 nM in experiment [2]; 1.2 µM in experiment [3]; 1.27 µM in experiment [4]; 1.55 µM in experiment [5]; 0.899 µM in experiment [6]. Further, the GI50 in experiment [7] was 1.96 µM; in experiment [8], 1.03 µM. For the same molecule, the TGI in experiment [1] was determined as 3.32 µM; in experiment [2] it was 2.31 µM; in experiment [3], 3.98 µM; in experiment [4], 5.01 µM; in experiment [5] it was 6.34 µM; in experiment [6], 2.91 µM. Also, the TGI was 8.39 µM in experiment [7] and 4.9 µM in experiment [8].

Turning to `O=C(O)c1cc(Cc2ccc(O)c(C(=O)O)c2)ccc1O` (tested in a mixture with another compound), the GI50 in experiment [1] was 5.68 µM; in experiment [2], 3780 nM; in experiment [3], 2.98 µM; in experiment [4] it was 7.29 µM; in experiment [5], 7.88 µM; in experiment [6], 0.592 µM. Also, the GI50 is 11.4 µM in experiment [7] and 3.32 µM in experiment [8]. Besides, the TGI worked out at 21.9 µM in experiment [1]; 40.4 µM in experiment [2]; 10.4 µM in experiment [3]; 23.3 µM in experiment [4]; 26.1 µM in experiment [5]; 2.9 µM in experiment [6]. In addition, the TGI in experiment [7] amounted to 26.6 µM; in experiment [8] it was 22.4 µM.

Regarding `CCOc1ccc2ccc3cccnc3c2n1`, the TGI in experiment [1] is 76 µM; in experiment [2], > 100 µM; in experiment [3], > 100 µM; in experiment [4] it was > 100 µM; in experiment [5], > 100 µM; in experiment [6], > 100 µM. The TGI in experiment [7] and in experiment [8] was > 100 µM each time.

For the molecule `COC1C(O)C(C)OC(OC2CC3CCC4C(CCC5(C)C(C6=CC(=O)OC6)CCC45O)C3(O)C(OC(C)=O)C2)C1O` (stereo not drawn), the TGI in experiment [1] is 3.5 µM; in experiment [2], > 100 µM; in experiment [3], 12.7 µM; in experiment [4], 10.3 µM; in experiment [5] it was 2.54 µM; in experiment [6], 8.57 µM. Also, the TGI in experiment [7] was 1.95 µM; in experiment [8], > 31.2 µM.

In the case of `O=C1c2ccn(CCCCN3CCCCC3)c2C(=O)c2c1c(O)c1ccccc1c2O`, the GI50 in experiment [1] is 15.3 µM; in experiment [2], 27000 nM; in experiment [3], 4.14 µM; in experiment [4], 30 µM; in experiment [5], 14.9 µM; in experiment [6] it was 13.2 µM. The GI50 is 6 µM in experiment [7] and 8.45 µM in experiment [8]. The TGI was 35.1 µM in experiment [1]; 65.1 µM in experiment [2]; > 100 µM in experiment [3]; > 73.7 µM in experiment [4]; 42.7 µM in experiment [5]; 45.4 µM in experiment [6]. For the same molecule, the TGI is 42.1 µM in experiment [7] and > 73.8 µM in experiment [8].

In the case of `CC1SC(c2c(Cl)cccc2Cl)N(NC(=O)C(O)c2ccccc2)C1=O` (stereo not drawn), the GI50 is 75.7 µM in experiment [1]; > 100000 nM in experiment [2]; > 100 µM in experiment [3]; > 100 µM in experiment [4]; > 100 µM in experiment [5]; > 100 µM in experiment [6]. In addition, the GI50 in experiment [7] was > 100 µM; in experiment [8], 46.9 µM. For the same molecule, the TGI in experiment [1], in experiment [2], in experiment [3], in experiment [4], in experiment [5] and in experiment [6] was > 100 µM each time. Also, the TGI in experiment [7] and in experiment [8] was > 100 µM in each case.

Consider `CN1CCN(c2ccc(NC3=C(Cl)C(=O)c4ncccc4C3=O)cc2C#N)CC1`, for which the GI50 in experiment [1] was 11.7 µM; in experiment [2] it was 2140 nM; in experiment [3], 2.16 µM; in experiment [4], 16.8 µM; in experiment [5], 2.09 µM; in experiment [6] it was 15 µM. Also, the GI50 is 4.44 µM in experiment [7] and 11.7 µM in experiment [8]. Also, the TGI in experiment [1] worked out at 25.3 µM; in experiment [2], 5.47 µM; in experiment [3] it was 5.14 µM; in experiment [4], 36.3 µM; in experiment [5], 5.27 µM; in experiment [6] it was 28.8 µM. In addition, the TGI in experiment [7] amounted to 15 µM; in experiment [8] it was 24.8 µM.

Turning to `COc1ccc(/C=C(/C)[N+](=O)[O-])cc1`, the TGI in experiment [1] came out at 8.28 µM; in experiment [2], 27.3 µM; in experiment [3], 11.9 µM; in experiment [4], 39.7 µM; in experiment [5], 9.42 µM; in experiment [6], 19 µM. Besides, the TGI in experiment [7] was 3.68 µM; in experiment [8] it was 3.4 µM.

Consider `COc1cc(NCC2COc3c(ccc(OC)c3OC)C2=O)c([N+](=O)[O-])cc1OC` (stereo not drawn), for which the TGI in experiment [1], in experiment [2], in experiment [3], in experiment [4], in experiment [5] and in experiment [6] was > 100 µM throughout. For the same molecule, the TGI in experiment [7] and in experiment [8] was > 100 µM throughout.

With `CS(=O)(=O)CCn1c(=O)c(Oc2ccc(F)cc2F)cc2cnc(NC3CCOCC3)nc21`, the GI50 was 15.8 µM in experiment [1]; > 25000 nM in experiment [2]; > 25 µM in experiment [3]; > 25 µM in experiment [4]; > 25 µM in experiment [5]; > 25 µM in experiment [6]. In addition, the GI50 in experiment [7] and in experiment [8] was > 25 µM each time. Also, the TGI in experiment [1], in experiment [2], in experiment [3], in experiment [4], in experiment [5] and in experiment [6] was > 25 µM throughout. The TGI in experiment [7] and in experiment [8] was > 25 µM in each case.

For the molecule `O=C(Nc1ccccc1O)c1ccc(CNC(=O)c2sccc2Nc2ccnc(C(F)(F)F)c2)cc1`, the GI50 was 2.62 µM in experiment [1]; 12700 nM in experiment [2]; 6.21 µM in experiment [3]; 8.07 µM in experiment [4]; 7.04 µM in experiment [5]; 8.33 µM in experiment [6]. Besides, the GI50 was 3.56 µM in experiment [7] and 4.96 µM in experiment [8]. Further, the TGI is 9.7 µM in experiment [1]; > 100 µM in experiment [2]; 27 µM in experiment [3]; 45 µM in experiment [4]; 27.7 µM in experiment [5]; 21.8 µM in experiment [6]. The results for the TGI in experiment [7] and in experiment [8] were 31.8 µM and 44.5 µM, respectively.
